Source: patent publication US4614746A, “5-fluorobenzonitrile derivatives for increasing the lean meat to fat ratio and/or enhancing the growth rate of warm-blooded animals” (American Cyanamid Company, priority 1985, dated 1986)

Experiments:
Assay type in all cases: in vivo
[1] = system: CFI female mice; experiment: Antilipogenic evaluation of test compounds - mouse study (Example 6, procedure of Example 4); conditions: for effectiveness as an antilipogenic agent: versus related analogues
Experimental: CFI female mice from Carworth Farms are received when they are six-weeks old. They are housed ten to a cage in air-conditioned rooms (22° C. to 25° C.) with automatically-controlled lights, 14 hours on and ten hours off. The basal diet used in these studies is Purina Laboratory Chow (see description below) which is supplied ad libitum.
Thirteen days after arrival, the mice are weighed in groups of ten and assigned at random to the different treatments. Each of the treatments is tested in three replicates, i.e., in three cages of ten mice each. There are ten cages of ten control mice each. Drugs are mixed in the diet at the dosage level indicated. Feed and water are offered ad libitum for a 12-day test period. Feed spilled is collected during the test period. At the end of the test period, the collected feed is weighed, and the mean feed consumption per cage of ten mice is determined for each treatment. The mice are weighed as a group of ten, and the weight gain determined. The mice are sacrificed by cervical dislocation. The right uterine fat pad of each mouse is removed. The fat pads for each cage of ten mice are weighed as a unit. Reduction in fat pad weights of animals is generally indicative of a reduction of total body fat of the treated animals.
Following the procedure of Example 4, the analogues of the compounds of the invention in the subject Application are evaluated as antilipogenic agents.

[2] = system: Hubbard X Hubbard Crossbred Chicks; experiment: Evaluation as feed additive in poultry (growth rate, feed utilization, carcass yield), seven weeks; conditions: for Gain: seven weeks; for FE (Feed efficiency): feed/gain ratio; for FE, Percent (±) Control: percent improvement
Text: Evaluation of 3-[2-(tert-butylamino)-1-hydroxyethyl]-5-fluorobenzonitrile as an animal feed additive for (1) the enhancement of the growth rate of poultry, (2) improvement in feed utilization thereby, (3) increase in the deposition of muscle tissue or protein in said birds and (4) improvement in the carcass quality of treated birds
One-day old Hubbard X Hubbard Crossbred Chicks, randomly allotted to pens of ten chicks (five males and five females) each.
Eight pens of chicks are used for unmedicated controls, and six pens of chicks are used at each level of drug. The duration of the experiment is seven weeks.
The controls are offered an unmedicated diet of Broiler Ration No. 453 (composition given below) and water ad libitum. Medicated chicks are offered the same diet containing the test drug at the levels indicated above, and water ad libitum. The weight of the chicks is determined at the beginning and on completion of the experiments. Weight gains and the amount of feed consumed are also determined. In addition, ten males and ten females from each group are randomly selected and sacrificed by decapitation. These birds were bled, the feathers, feet, and viscera removed, and the resulting carcass weighed.
The thus-obtained data are averaged and summarized in Table IV below, wherein the percent improvement in weight gains and feed/gain ratios are given.

[3] = system: wether lambs; experiment: Evaluation in wether lambs (growth, feed efficiency, muscle, fat, carcass), eight weeks; conditions: for ADG (Average daily gain): eight weeks; for Subcutaneous Fat Depth Over Loin / Muscle Cross-Sectional Area: 12th rib; for Muscle Cross-Sectional Area: longissimus dorsi
Text: Evaluation of 3-[2-(tert-butylamino)1-hydroxyethyl]-5-fluorobenzonitrile for growth enhancement, feed efficiency improvement, increased deposition of muscle tissue and/or protein and improvement in carcass composition
To determine the effect of feeding experimental compounds to ruminants, wether lambs are randomly allotted to pens in groups of five. Three replications per treatment are used. The lambs are weighed and permitted feed and water ad libitum. The feed is weighed daily, and uneaten feed from the previous day is collected and weighed. Test lambs receive the same diet as control animals, but with the addition of experimental compound at a concentration of from 5 ppm to 20 ppm. The tests are conducted for a period of eight weeks at the end of which the lambs are again weighed, and the feed consumed calculated. The lambs are then necropsied. Eight animals per treatment are dressed, and the average cross-sectional area of the longissimus dorsi and depth of subcutaneous fat measured at the 12th rib.

[4] = system: CFI female mice; experiment: Antilipogenic evaluation of test compounds - mouse study (fat pad and body weight, 12-day feeding); conditions: 12 days
Experimental: CFI female mice from Carworth Farms are received when they are six-weeks old. They are housed ten to a cage in air-conditioned rooms (22° C. to 25° C.) with automatically-controlled lights, 14 hours on and ten hours off. The basal diet used in these studies is Purina Laboratory Chow (see description below) which is supplied ad libitum. The following is a description of the diet to which the growth-promoting compounds were added. Meat and bone meal, dried skimmed milk, wheat germ meal, fish meal, animal liver meal, dried beet pulp, ground extruded corn, ground oat groats, soybean meal, dehydrated alfalfa metal, cane molasses, animal fat preserved with BHA, vitamin B12 supplement, calcium pantothenate, choline chloride, folic acid, riboflavin supplement, brewer's dried yeast, thiamin, niacin, vitamin A supplement, D-activated plant sterol, vitamin E supplement, calcium carbonate, dicalcium phosphate, iodized salt, ferric ammonium citrate, iron oxide, manganous oxide, cobalt carbonate, copper oxide, zinc oxide. Water is also allowed ad libitum. Thirteen days after arrival, the mice are weighed in groups of ten and assigned at random to the different treatments. Each of the treatments is tested in three replicates, i.e., in three cages of ten mice each. There are ten cages of ten control mice each. Drugs are mixed in the diet at the dosage level indicated. Feed and water are offered ad libitum for a 12-day test period. Feed spilled is collected during the test period. At the end of the test period, the collected feed is weighed, and the mean feed consumption per cage of ten mice is determined for each treatment. The mice are weighed as a group of ten, and the weight gain determined. The mice are sacrificed by cervical dislocation. The right uterine fat pad of each mouse is removed. The fat pads for each cage of ten mice are weighed as a unit. Reduction in fat pad weights of animals is generally indicative of a reduction of total body fat of the treated animals.

CC(C)(C)NCC(O)c1cc(F)cc(C#N)c1 (centres unmarked) [drawing 24]
Mouse Test Fat Pad Weight % ± Control ([1]; 100 ppm): -38.4%
Mouse Test Fat Pad Weight % ± Control ([1]; 200 ppm): -42.9%

CC(C)NCC(O)c1cc(F)cc(C#N)c1 (centres unmarked) [3-fluoro-5-[1-hydroxy-2-(isopropylamino)ethyl]-benzonitrile]
effectiveness as an antilipogenic agent ([1]; 100 ppm or 200 ppm in the diet): generally more effective as an antilipogenic agent than its related analogues

CC(C)(C)NCC(O)c1cc(F)cc(C#N)c1 (centres unmarked) [3-[2-(tert-Butylamino)-1-hydroxyethyl]-5-fluorobenzonitrile]
effectiveness as an antilipogenic agent [1]: markedly more effective as an antilipogenic agent than its related aanalogues
Carcass Yield ([2]; 0.25 ppm in diet): 69.46% of live weight
Carcass Yield, Percent (±) Control ([2]; 0.25 ppm in diet): +1.0%
Feed Consumed ([2]; 0.25 ppm in diet): 2.576 kg
Feed Consumed, Percent (±) Control ([2]; 0.25 ppm in diet): +0.4%
Gain, Percent (±) Control ([2]; 0.25 ppm in diet): +2.5%
Gain ([2]; 0.25 ppm in diet): 1.105 kg
FE (Feed efficiency) ([2]; 0.25 ppm in diet): 2.333
FE, Percent (±) Control ([2]; 0.25 ppm in diet): +2.1%
Carcass Yield ([2]; 0.5 ppm in diet): 68.73% of live weight
Carcass Yield, Percent (±) Control ([2]; 0.5 ppm in diet): 0.0%
Feed Consumed ([2]; 0.5 ppm in diet): 2.571 kg
Feed Consumed, Percent (±) Control ([2]; 0.5 ppm in diet): +0.2%
Gain, Percent (±) Control ([2]; 0.5 ppm in diet): +5.0%
Gain ([2]; 0.5 ppm in diet): 1.132 kg
FE (Feed efficiency) ([2]; 0.5 ppm in diet): 2.274
FE, Percent (±) Control ([2]; 0.5 ppm in diet): +4.6%
Carcass Yield ([2]; 1 ppm in diet): 69.66% of live weight
Carcass Yield, Percent (±) Control ([2]; 1 ppm in diet): +1.3%
Feed Consumed ([2]; 1 ppm in diet): 2.573 kg
Feed Consumed, Percent (±) Control ([2]; 1 ppm in diet): +0.2%
Gain, Percent (±) Control ([2]; 1 ppm in diet): +1.9%
Gain ([2]; 1 ppm in diet): 1.097 kg
FE (Feed efficiency) ([2]; 1 ppm in diet): 2.350
FE, Percent (±) Control ([2]; 1 ppm in diet): +1.4%
Carcass Yield ([2]; 2 ppm in diet): 69.30% of live weight
Carcass Yield, Percent (±) Control ([2]; 2 ppm in diet): +0.8%
Feed Consumed ([2]; 2 ppm in diet): 2.578 kg
Feed Consumed, Percent (±) Control ([2]; 2 ppm in diet): +0.4%
Gain, Percent (±) Control ([2]; 2 ppm in diet): +3.3%
Gain ([2]; 2 ppm in diet): 1.114 kg
FE (Feed efficiency) ([2]; 2 ppm in diet): 2.315
FE, Percent (±) Control ([2]; 2 ppm in diet): +3.0%
AD Feed Consumed (Average daily feed consumed) ([3]; 5 ppm in diet): 1.43 kg/day
AD Feed Consumed, Percent (±) Control ([3]; 5 ppm in diet): +2.9%
ADG, Percent (±) Control ([3]; 5 ppm in diet): +11.3%
Carcass Yield ([3]; 5 ppm in diet): 51.80% of live weight
Carcass Yield, Percent (±) Control ([3]; 5 ppm in diet): +1.8%
FE (Feed efficiency) ([3]; 5 ppm in diet): 6.36
FE, Percent (±) Control ([3]; 5 ppm in diet): +7.0%
Muscle Cross-Sectional Area, Percent (±) Control ([3]; 5 ppm in diet): +6.8%
Subcutaneous Fat Depth Over Loin, Percent (±) Control ([3]; 5 ppm in diet): +23.8%
ADG (Average daily gain) ([3]; 5 ppm in diet): 226 g
Subcutaneous Fat Depth Over Loin ([3]; 5 ppm in diet): 3.2 cm
Muscle Cross-Sectional Area ([3]; 5 ppm in diet): 17.69 cm^2
AD Feed Consumed (Average daily feed consumed) ([3]; 10 ppm in diet): 1.50 kg/day
AD Feed Consumed, Percent (±) Control ([3]; 10 ppm in diet): +7.9%
ADG, Percent (±) Control ([3]; 10 ppm in diet): +24.6%
Carcass Yield ([3]; 10 ppm in diet): 51.52% of live weight
Carcass Yield, Percent (±) Control ([3]; 10 ppm in diet): +1.3%
FE (Feed efficiency) ([3]; 10 ppm in diet): 5.91
FE, Percent (±) Control ([3]; 10 ppm in diet): +13.6%
Muscle Cross-Sectional Area, Percent (±) Control ([3]; 10 ppm in diet): +11.4%
Subcutaneous Fat Depth Over Loin, Percent (±) Control ([3]; 10 ppm in diet): +35.7%
ADG (Average daily gain) ([3]; 10 ppm in diet): 253 g
Subcutaneous Fat Depth Over Loin ([3]; 10 ppm in diet): 2.7 cm
Muscle Cross-Sectional Area ([3]; 10 ppm in diet): 18.44 cm^2
AD Feed Consumed (Average daily feed consumed) ([3]; 20 ppm in diet): 1.39 kg/day
AD Feed Consumed, Percent (±) Control ([3]; 20 ppm in diet): +0.0%
ADG, Percent (±) Control ([3]; 20 ppm in diet): +15.3%
Carcass Yield ([3]; 20 ppm in diet): 54.15% of live weight
Carcass Yield, Percent (±) Control ([3]; 20 ppm in diet): +6.5%
FE (Feed efficiency) ([3]; 20 ppm in diet): 5.92
FE, Percent (±) Control ([3]; 20 ppm in diet): +13.5%
Muscle Cross-Sectional Area, Percent (±) Control ([3]; 20 ppm in diet): +24.2%
Subcutaneous Fat Depth Over Loin, Percent (±) Control ([3]; 20 ppm in diet): +57.1%
ADG (Average daily gain) ([3]; 20 ppm in diet): 234 g
Subcutaneous Fat Depth Over Loin ([3]; 20 ppm in diet): 1.8 cm
Muscle Cross-Sectional Area ([3]; 20 ppm in diet): 20.56 cm^2

CC(C)(C)NCC(O)c1cc(F)cc(C#N)c1 (centres unmarked) [drawing 13]
% Change in Body Weight vs controls ([4]; 25 ppm in diet): +96.61%
% Reduction in Fat Pad Weight vs Controls ([4]; 25 ppm in diet): -8.97%
% Change in Body Weight vs controls ([4]; 50 ppm in diet): +80.51%
% Reduction in Fat Pad Weight vs Controls ([4]; 50 ppm in diet): -14.04%
% Change in Body Weight vs controls ([4]; 100 ppm in diet): +65.25%
% Reduction in Fat Pad Weight vs Controls ([4]; 100 ppm in diet): -29.65%
% Change in Body Weight vs controls ([4]; 200 ppm in diet): +55.93%
% Reduction in Fat Pad Weight vs Controls ([4]; 200 ppm in diet): -38.13%
